# According to patent US8258140B2 (Astrazeneca AB, priority 2009, dated 2012):
# Biological target: T1, isolated rat AR-LBD (Rattus norvegicus, UniProt P15207)
# T1 construct: purchased Invitrogen PV4293
# T1 sequence (P15207 651-882 limits assumed): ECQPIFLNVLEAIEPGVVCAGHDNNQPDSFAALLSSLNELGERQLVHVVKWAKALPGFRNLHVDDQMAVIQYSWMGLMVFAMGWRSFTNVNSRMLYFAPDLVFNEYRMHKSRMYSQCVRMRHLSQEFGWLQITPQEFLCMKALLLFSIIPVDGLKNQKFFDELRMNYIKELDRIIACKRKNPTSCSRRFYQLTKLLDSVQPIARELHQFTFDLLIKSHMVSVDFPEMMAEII
# Assay: Androgen Receptor Ligand Binding Domain Competitive Binding Assay (fluorescence polarisation, PolarScreen)
# Settings: FP, 12 nM AR-LBD, 2 nM fluormone, 4-6 hours at room temperature, 50% reduction in tracer binding; read-out: Androgen Receptor Ligand Binding Domain Competitive Binding Assay (b) IC50/μM
# Description: The ability of compounds to bind to isolated Androgen Receptor Ligand binding domain (AR-LBD) was assessed in competition assays using a Fluorescence Polarisation (FP) detection end-point.
# For the FP test, an assay test kit was purchased from Invitrogen and used to measure compound binding to the isolated rat AR-LBD which shares 100% sequence identity to the human AR-LBD. The Invitrogen PolarScreen™ Androgen Receptor Competitor Assay Red (Product Code No. PV4293), is a fluorescence polarisation (FP)—based competition assay which measures if test compound can displace a fluorescently-labelled tracer compound. If the test compound binds to the AR-LBD it will prevent the formation of the receptor/tracer complex, which will result in a low polarisation value.
# The assay was performed as follows with all reagent additions carried out using the Thermo Scientific Matrix PlateMate: • 1. Acoustic dispense 120 nl of the test compound into a black low volume 384 well assay plates. • 2. Volumes of reagents are added to give the following final concentrations of assay components:—0.5 mM DTT, 2 nM fluormone, 12 nM AR-LBD in the Invitrogen Assay Buffer • 3. Dispense 15 μl of the assay mix into each well of the assay plate • 4. Cover the assay plate to protect the reagents from light and evaporation, and incubate at room temperature for 4-6 hours. • 5. Excite at […] and measure the fluorescent emission signal of each well at 590 nm in FP mode using the BMG PheraSTAR or other suitable plate reader.
# Compounds were dosed directly from a compound source microplate containing serially diluted compound (4 wells containing 10 mM, 0.1 mM, 1 μM and 10 nM final compound respectively) to an assay microplate using an Labcyte Echo 550. The Echo 550 is a liquid handler that uses acoustic technology to perform direct microplate-to-microplate transfers of DMSO compound solutions and the system can be programmed to transfer multiple small nL volumes of compound from the different source plate wells to give the desired serial dilution of compound in the assay which is then back-filled to normalise the DMSO concentration across the dilution range. In total 120 nL of compound plus DMSO was added to each well and compounds tested in a 12-point concentration response format over a final compound concentration range of 100, 30, 10, 3, 1, 0.3, 0.1, 0.03, 0.01, 0.003, 0.001, 0.0001 μM, respectively.
# FP dose response data obtained with each compound was exported into a suitable software package (such as Origin) to perform curve fitting analysis. Competitive AR binding may be expressed as an IC50 value. This is determined by calculation of the concentration of compound that is required to give a 50% reduction in tracer compound binding to AR-LBD.
row,IC50,SMILES
1,23.8 µM,"CC(=O)N1CCN(CCCOc2ccc(C3CCN(C4=Nn5c(nnc5C(F)(F)F)CC4)CC3)cc2)CC1 [Example 4.1, 6-[4-[4-[3-(4-acetylpiperazin-1-yl)propoxy]phenyl]piperidin-1-yl]-3-(trifluoromethyl)-7,8-dihydro[1,2,4]triazolo[4,3-b]pyridazine]"
2,22.9 µM,"CC(=O)N1CCN(CCOc2ccc(C3CCN(C4=Nn5c(nnc5C(F)(F)F)CC4)CC3)cc2)CC1 [Example 5.1, 6-(4-{4-[2-(4-acetylpiperazin-1-yl)ethoxy]phenyl}piperidin-1-yl)-3-(trifluoromethyl)-7,8-dihydro[1,2,4]triazolo[4,3-b]pyridazine]"
3,61.9 µM,"CN1CCN(CCOc2ccc(C3CCN(C4=Nn5c(nnc5C(F)(F)F)CC4)CC3)cc2)CC1=O [Example 37, 1-methyl-4-[2-(4-{1-[3-(trifluoromethyl)-7,8-dihydro[1,2,4]triazolo[4,3-b]pyridazin-6-yl]piperidin-4-yl}phenoxy)ethyl]piperazin-2-one]"
4,30.3 µM,"CC(=O)N1CCN(CCOc2ccc(C3CCN(C4=Nn5c(nnc5C(F)(F)F)CC4)CC3)cc2)C[C@H]1C [Example 51, 6-[4-(4-{2-[(3R)-4-acetyl-3-methylpiperazin-1-yl]ethoxy}phenyl)piperidin-1-yl]-3-(trifluoromethyl)-7,8-dihydro[1,2,4]triazolo[4,3-b]pyridazine]"
